Measurements: the supplement of paper PMC10307832

Legend:
Assay in all cases: relative viability (nuclei count vs DMSO), 5 days (fraction); higher = more cells survive
Daporinad + Pemetrexed = compound: O=C(/C=C/c1cccnc1)NCCCCC1CCN(C(=O)c2ccccc2)CC1 [Daporinad] + Nc1nc2[nH]cc(CCc3ccc(C(=O)N[C@@H](CCC(=O)O)C(=O)O)cc3)c2c(=O)[nH]1 [Pemetrexed] (partner 0.2 µM)
Outline: (§1)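 Lung cancer cell lines in 1536-well plates were dosed by pin tool the day after seeding, either with one drug alone or with a fixed anchor-drug dose plus five library-drug doses (not always all listed) in √10 steps. After 5 days, cells were fixed and their nuclei stained in one step (final 0.05% Triton X-100, 1% formaldehyde, 1 ug/ml Hoechst), then counted on 4× images. Relative viability is the nuclei count in treated wells divided by that in vehicle wells. Values are medians of duplicate plates.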

Daporinad + Olaparib = compound: O=C(/C=C/c1cccnc1)NCCCCC1CCN(C(=O)c2ccccc2)CC1 [Daporinad] + O=C(c1cc(Cc2n[nH]c(=O)c3ccccc23)ccc1F)N1CCN(C(=O)C2CC2)CC1 [Olaparib] (partner 8 µM)
Outline: as §1

Daporinad + Crizotinib = compound: O=C(/C=C/c1cccnc1)NCCCCC1CCN(C(=O)c2ccccc2)CC1 [Daporinad] + C[C@@H](Oc1cc(-c2cnn(C3CCNCC3)c2)cnc1N)c1c(Cl)ccc(F)c1Cl [Crizotinib] (partner 1 µM)
Outline: as §1

R406 + Linsitinib = compound: COc1cc(Nc2ncc(F)c(Nc3ccc4c(n3)NC(=O)C(C)(C)O4)n2)cc(OC)c1OC [R406] + C[C@]1(O)C[C@@H](c2nc(-c3ccc4ccc(-c5ccccc5)nc4c3)c3c(N)nccn32)C1 [Linsitinib] (partner 1 µM)
Outline: as §1

| Cell Line | relative viability (Daporinad + Pemetrexed; first compound 0.0005 µM) | relative viability (Daporinad + Pemetrexed; first compound 0.001581 µM) | relative viability (Daporinad + Pemetrexed; first compound 0.005 µM) | relative viability (Daporinad + Pemetrexed; first compound 0.01581 µM) | relative viability (Daporinad + Olaparib; first compound 0.0005 µM) | relative viability (Daporinad + Olaparib; first compound 0.001581 µM) | relative viability (Daporinad + Olaparib; first compound 0.005 µM) | relative viability (Daporinad + Olaparib; first compound 0.01581 µM) | relative viability (Daporinad + Crizotinib; first compound 0.0005 µM) | relative viability (Daporinad + Crizotinib; first compound 0.001581 µM) | relative viability (Daporinad + Crizotinib; first compound 0.005 µM) | relative viability (Daporinad + Crizotinib; first compound 0.01581 µM) | relative viability (R406 + Linsitinib; first compound 0.08 µM) | relative viability (R406 + Linsitinib; first compound 0.253 µM) | relative viability (R406 + Linsitinib; first compound 0.8 µM) | relative viability (R406 + Linsitinib; first compound 2.53 µM) | relative viability (R406 + Linsitinib; first compound 8 µM) |
| --- | --- | --- | --- | --- | --- | --- | --- | --- | --- | --- | --- | --- | --- | --- | --- | --- | --- |
| NCI-H1975 | 0.3 | 0.313 | 0.31 | 0.256 | 0.818 | 0.764 | 0.728 | 0.611 | 0.996 | 0.899 | 1.12 | 0.881 | 0.875 | 1.06 | 0.981 | 0.467 | 0.186 |
| CAL-12T | 1.09 | 1.21 | 0.502 | 0.314 | 0.624 | 0.596 | 0.512 | 0.269 | 0.659 | 0.535 | 0.367 | 0.185 | 0.806 | 0.909 | 0.943 | 0.495 | 0.675 |
| NCI-H2342 | 0.782 | 0.739 | 0.862 | 0.819 | 0.409 | 0.456 | 0.427 | 0.367 | – | – | – | – | – | – | – | – | – |
| HCC-44 | 0.623 | 0.593 | 0.677 | 0.765 | 0.962 | 1.06 | 1.04 | 0.985 | 0.768 | 0.787 | 0.899 | 0.747 | 0.62 | 0.729 | 0.758 | 0.688 | 0.305 |
| EKVX | 0.344 | 0.468 | 0.389 | 0.343 | 0.861 | 0.912 | 0.788 | 0.615 | 0.891 | 1.01 | 1.01 | 0.993 | 1.05 | 1.32 | 1.19 | 0.9 | 0.688 |
| NCI-H1651 | 0.602 | 0.557 | 0.659 | 0.545 | 0.159 | 0.15 | 0.131 | 0.138 | 0.881 | 0.875 | 0.825 | 0.807 | 0.862 | 1.1 | 1.06 | 0.829 | 0.5 |
| NCI-H1648 | 0.596 | 0.617 | 0.843 | 0.769 | 0.641 | 0.667 | – | 0.523 | – | – | – | – | – | – | – | – | – |
| NCI-H1703 | – | – | – | – | 0.514 | 0.388 | 0.576 | 0.41 | 0.872 | 0.669 | 0.655 | 0.435 | 0.742 | 0.859 | 0.695 | 0.186 | 0.139 |
| Calu-6 | – | – | – | – | 0.495 | 0.433 | 0.391 | 0.268 | 0.902 | 0.846 | 0.797 | 0.514 | 0.937 | 1.08 | 1.12 | – | 0.49 |
| EBC-1 | – | – | – | – | 0.597 | 0.667 | 0.602 | 0.49 | 0.185 | 0.166 | 0.162 | 0.181 | 1.01 | 1.07 | 1.13 | 0.732 | 0.423 |
| IA-LM | – | – | – | – | 0.798 | 0.766 | 0.707 | 0.475 | 0.734 | 0.917 | 1.05 | 0.82 | 0.746 | 0.901 | 0.921 | 1.01 | 0.887 |
